Data on one compound can be found in US20080153792A1, “Drug Identification and Treatment Method” (priority 2006, published 2008).

For one assay, the system named is DIO mice. In words: diet induced obesity (DIO) mouse, OGTT. Format: in vivo. To be noted: 20, 40 or 80 mg/kg twice a day oral gavage up to 28 days. The text has this: Diet induced obesity (DIO) mouse hyperglycemia treatment. The effect of a drug to enhance peripheral sensitivity to insulin can be studied in a mouse model in which a state of insulin resistance is attained by feeding the animals a fat-enriched diet (60% of total caloric intake) for at least 6 weeks. This model has been described, e.g., J. N. Thupari et al., Proc. Natl. Acad. Sci. USA, 99(14):9498-9502, 2002, H. Xu et al., J. Clin. Invest., 112:1821-1830, 2003, H. Takahashi et al., J. Biol. Chem., 278(47):46654-46660, 2003.
For these studies, animals of approximately 4 weeks of age were divided into groups of 10 animals each and then treated with a vehicle control (no drug) or 17α-ethynylandrost-5-ene-3β,7β,17β-triol by oral gavage. The 17α-ethynylandrost-5-ene-3β,7β,17β-triol was administered at 20 mg/kg, 40 mg/kg or 80 mg/kg twice a day for up to 28 days. At day 14 and day 28 during the dosing period an OGTT was performed.

For assay [1], the system named is human peripheral blood mononuclear cells (PBMC). In words: human mixed lymphocyte reaction (MLR). Format: cell-based. To be noted: either 300 nM or 30 nM; 6 days; p>0.05. Here is the method: Human mixed lymphocyte reaction (MLR). The capacity of 3β,16α-dihydroxy-17-oxoandrostane, 3β,17β-dihydroxy-16-oxoandrostane, 17α-ethynylandrost-5-ene-3β,7β,17β-triol, and 17β-aminoandrost-5-ene-3β-ol to affect antigen specific stimulation in which human T lymphocytes respond to a specific foreign antigen (major histocompatibility complex).
Blood samples were obtained from 3 (2 males, […]) fasting, healthy human volunteers of 23-31 years old. […] The subjects were bled between […] to limit possible fluctuations in the circulating levels of hormones or cytokines that could have influenced the in vitro responses of their lymphocytes. Peripheral blood mononuclear cells (PBMC) were isolated by centrifugation on Ficoll-Hypaque (density 1.077, Biochrom AG, Berlin, Germany) gradients and resuspended in culture medium (RPMI 1640 supplemented with 2 mM L-glutamine, penicillin (100 U/mL) and streptomycin ([…]) (Invitrogen s.rl., Milan, Italy). Autologous (responder) inactivated plasma was used at 10%. Five hundred thousand responder PBMC (PBMCr) and 500,000 allogeneic irradiated (30 Gy) stimulator PBMC (PBMCs) were mixed at a ratio of 1:1 in 200 μL medium and cultured for 6 days in flat bottom 96 well plates (Nunc, Roskilde, Denmark) at a concentration of 300 nM or 30 nM for each of the 4 compounds. The compounds were dissolved in ethanol and then diluted to the desired concentration with culture medium leading to a final solution containing 0.01% of ethanol. This vehicle was used as control. Controls also included PBMCr and PBMCs cultured separately. During the last 8 hours of the culture period the PBMC were pulsed with 1 μCi/well [^3H] thymidine (Amersham, Milan, Italy). The cells were then harvested and radioactivity incorporation measured with a beta cell counter. The mean cpm of quadruplicate wells was calculated. Proliferation of T cells was expressed as a stimulation index: SI=cpm (PMBCs xPBMCr)/cpm (PBMCr)+cpm (PBMCs). Statistical analysis was performed using the Student's t test. The cpm obtained from quadruplicate of each test compound were compared to proliferative responses obtained in control PBMCr and PBMCs cultured in the presence of the vehicle. Differences were considered significant at p<0.05.

In assay [2] the test system is osteoblasts and osteocytes in murine vertebral bone. In words: osteoblast and osteocyte apoptosis in ovariectomized mice (TUNEL). The class given is in vivo, mouse. To be noted: ovariectomized Swiss Webster mice. The text has this: The degree of apoptosis of osteoblasts and osteocytes in murine vertebral bone as a function of estrogen deficiency was examined. Swiss Webster mice (four months old) were ovariectomized. Twenty-eight days later, the animals were sacrificed, vertebrae were isolated, fixed and embedded, and then undecalcified in methacrylate.

For assay [3], the system named is BALB/C mice, TNP-OVA sensitized. In words: reporter antigen popliteal lymph node (PLN) assay. The class given is in vivo, mouse. To be noted: for average number of lymphocytes in PLNs: day 5. The text has this:
Analysis of immune suppression. Glucocorticoid steroids such as dexamethasone or hydrocortisone are typically immune suppressive and have significant toxicities associated with their use. Immune suppression was examined in a reporter antigen popliteal lymph node assay in mice essentially as previously described (C. Goebel et al., Inflamm. Res., 45(Suppl. 2):S85-S90, 1996; R. Pieters et al., Environmental Health Perspectives 107(Suppl. 5):673-677,1999). […] In this protocol, the vehicle was 0.1% carboxymethylcellulose, 0.9% saline, 2% tween 80 and 0.05% phenol, which contained 17α-ethynylandrost-5-ene-3β,7β,17β-triol in suspension in drug treated animals. Assessment of activity included (1) measuring suppression of numbers of total lymphocytes, antigen specific IgM, IgG1 and IgG2a antibody secreting cells (ASC) (ELISPOT assay) in popliteal lymph node cells; (2) analysis of cell surface marker (CD4, CD8, CD19, F480, CD80, CD86) expression by flow cytometry of living cells in suspension; and (3) IL-4, TNFα and IFNγ production by lymphocytes in vitro (ELISA).
Groups (n=5 per group) of specific pathogen free BALB/C mice were used. The Positive control group was treated with vehicle (oral gavage) and 5 μg/day dexamethasone by subcutaneous injection to induce immune suppression. Vehicle control animals (negative control) were treated with vehicle alone (oral gavage). One group of animals was treated with 17α-ethynylandrost-5-ene-3β,7β,17β-triol at 0.1 mg/day by oral gavage. Another group was treated with 1 mg/day of 17α-ethynylandrost-5-ene-3β,7β,17β-triol was administered to the animals oral gavage. The results were analyzed by two-tailed Student's t-test with equal variance. The animals were injected in the right hind footpad with 50 μL of freshly prepared sensitizing dose of TNP-OVA. Dexamethasone (decadron phosphate injection; dexamethasone sodium phosphate) was administered by subcutaneous injection into the nape of the neck daily, immediately following sensitization with TNP-OVA. 17α-Ethynylandrost-5-ene-3β,7β,17β-triol was given immediately afterwards by gavage. Five days after injection of TNP-OVA, blood was drawn by orbital puncture, and the mice were euthanized by cervical dislocation and popliteal lymph nodes were removed and separated from adherent fatty tissue. Single cell suspensions were prepared, resuspended in 1 mL PBS-BSA (1%) and counted. Cell numbers, IL-4, IL-5 and IFNγ were measured.

In assay [4] the test system is CD1 male mice, carrageenan-λ induced pleurisy. In words: carrageenan-λ induced lung (pleural cavity) inflammation in mice. The note with it: 1 mg and 0.1 mg by oral gavage. The class given is in vivo, mouse.

Take `C#C[C@]1(O)CC[C@H]2[C@@H]3[C@@H](O)C=C4C[C@@H](O)CC[C@]4(C)[C@H]3CC[C@@]21C` [17α-ethynylandrost-5-ene-3β,7β,17β-triol]: the “glucose intolerance (OGTT glycemic excursion) compared to vehicle” value with DIO mice is “notably reduced glucose intolerance”. Further, in assay [1], the “immune suppression in the MLR” value is reported as “not appreciably immune suppressive”. In addition, the “osteoblast and osteocyte apoptosis” value in assay [2] is “reduce apoptosis”. Moreover, the results for the “average number of lymphocytes in PLNs” value in assay [3] (0.1 mg/day by oral gavage) and in assay [3] (1 mg/day by oral gavage) were 11.1×10^6 lymphocytes per lymph node and 8.2×10^6 lymphocytes per lymph node, respectively. The “IFNγ, IL-4 and IL-5 levels compared to the vehicle control group” value in assay [3] (compound 1.0 mg/day and 0.1 mg/day oral, dexamethasone 5 μg/day s.c.) is on record as “increased”. For the same compound, the “anti-inflammation activity versus vehicle controls” value in assay [4] is listed as “statistically significant anti-inflammation activity”.
